Reference: article PMC7762498, “Demethoxycurcumin analogue DMC-BH exhibits potent anticancer effects on orthotopic glioblastomas” (Aging (Albany NY), 2020)
Like-named read-outs stand apart in the source and are kept apart here.

What was measured:
[1] = Rat pharmacokinetic study; assay type: in vivo, rats; parameters: Vz_F_obs (volume of distribution): unit not given here; conditions: for MRT last: read-out: MRTlast (mean residence time); for half-life: read-out: T1/2 (half-life) (converted)
Method: Rat PK studies were performed to study whether DMC-BH is more bioavailable than did DMC.
Female Sprague-Dawley (SD) rats (n = 3) were purchased from the Shanghai Experimental Animal Center of Chinese Academy of Science (Shanghai, China). After 3 days of acclimatization, DMC-BH or DMC was administered intravenously into the jugular vein catheters at a dose of 1.00 mg/kg. After oral administration, blood samples (250 μL) were collected via jugular vein catheters at 30, 60, 90, 120, 150, 180 and 240 minutes and 8, 12 and 24 hours. Plasma samples were prepared by centrifuging the blood samples at 13,000 g for 5 minutes. All plasma samples were stored immediately at -80° C until analyzed. Analytes were extracted from 100 μL of plasma with 300 μL of acetonitrile containing 125 ng/mL of the internal standard (midazolam). The samples were thoroughly mixed and centrifuged at 8,000 g. The organic extract was added to 150 μL of 5mM NH4FA and transferred to the autosampler for LC-MS/MS analysis. Multiple reaction monitoring mode, a highly specific and sensitive label-free technique was performed by scanning the most sensitive signals. The pharmacokinetic parameters were determined using non-compartmental analysis (WinNonlin, Pharsight Corporation, Mountain View, CA, USA).

[2] = system: human glioblastoma U87-Luc cells; test: Orthotopic glioblastoma xenograft (BLI, immunohistochemistry); assay type: in vivo, mice; conditions: for tumor growth (BLI): U87-Luc orthotopic xenograft, nude mice, 20 mg/kg intraperitoneal; for percentage of TUNEL-positive cells / Ki67-positive rate: orthotopic xenograft tissue, 20 mg/kg; for percentage of TUNEL-positive cells: control 3.30% ± 0.26%; for Ki67-positive rate: untreated group 36.73% ± 4.82%
Method: We used orthotopic glioblastoma xenografts transplanted into mice by human glioblastoma U87-Luc cells to quantify the anti-tumor effect of DMC-BH and DMC. Tumor growth was recorded in vivo using Bioluminescent Imaging (BLI). […] The sizes of the tumors in the mice treated with DMC-BH were much smaller than those in the DMC-treated group or control group (P < 0.05) (Figure 4B). […] In addition, no significant body weight loss occurred in any of the three groups (P > 0.05) (Figure 4C).
Figure 4 The effects of DMC-BH and DMC on tumor growth in orthotopic glioblastoma xenograft models. (A) U87-Luc xenograft tumor-bearing nude mice were treated with 20 mg/kg DMC-BH, 20 mg/kg DMC or isometric saline for 18 days. The growth of orthotopic glioblastoma xenografts was monitored by BLI. (B) The sizes of orthotopic glioblastoma xenografts were measured using an IVIS spectrum image system. (C) The body weight of animals was measured after DMC-BH, DMC or isometric saline treatment.
Figure 5 The effects of DMC-BH and DMC on orthotopic glioblastoma growth were analyzed by immunohistochemical staining. (A) The orthotopic glioblastoma growth potential after treatment with 20 mg/kg DMC-BH or DMC treatment was evaluated by Ki67 immunohistochemistry. (B) The orthotopic glioblastoma apoptosis rate after treatment with 20 mg/kg DMC-BH or DMC was analyzed by TUNEL staining.
Thirty-six male nude mice weighing between approximately 18 g and 20 g and aged 6 to 8 weeks were divided into a control group, DMC group and DMC-BH group. The nude mice were handled under a laminar flow hood, and the feed, bedding, cage and contact instruments were all used after high pressure disinfection. The amplified U87-Luc cells were passaged in a 6 cm culture dish and placed in a 5% CO2 incubator. Ten percent chloral hydrate (40 μL/10 g) was used to anesthetize nude mice, and the nude mice were fixed on a stereotaxic apparatus when they were under deep anesthesia. We began to digest the U87-Luc cells once the mice were immobilized. The concentration of cells was 1 × 10^8/mL. Using a micro syringe, we slowly drew up 5 μL cells. Then 5 × 10^5 U87-Luc cells were injected into the caudate nucleus of the nude mice through an infusion of 1 μL/min. The orthotopic glioblastoma growth was quantified by BLI using an IVIS SPECTRUM 200 system (Perkin Elmer). Either DMC-BH or DMC was administered via intraperitoneal injection at a dose level of 20 mg/kg per injection. The drug administration started 10 days after intracranial implantation of U87-Luc cells, and in vivo imaging confirmed that the tumors were formed. The drug was administered continuously for 18 days. Control mice received an equivalent volume of physiologic solution each day. At day 18, all animals were sacrificed by CO2 inhalation.
Anesthetize mice with 2-3% isoflurane. Inject mice intraperitoneally with D-luciferin (150 μl of 15 mg/ml stock). Ten minutes after luciferin injection assess bioluminescent signal over an integration time of 10 and 60 s using a cooled charge-coupled device (CCD) camera (Spectrum; Caliper Life Sciences, Hopkinton, MA, USA). BLI was used to monitor tumor growth and response to therapy using the IVIS spectrum imaging system.
Following perfusion, the whole brain was immersed in 10% neutral paraformaldehyde buffer solution and fixed for 48 hours at room temperature. Routine dehydration and paraffin embedding were performed after fixation. Paraffin blocks were sliced to a thickness of 3 μm. We dewaxed tissue sections with xylene and rehydrated them through an ethanol gradient. The sections were then rinsed 2 times for 5 minutes with PBS. Incubate with 3% methanol solution of hydrogen peroxide for 20 minutes. Sections were then incubated in 5% goat serum for 10 minutes at room temperature. Serum was removed, and the sections were incubated with the first antibody at 4° C degree overnight. After PBS flushing, we added a secondary biotin-conjugated antibody. […]

p-mTOR = test: Western blot of orthotopic xenograft tissue, p-mTOR; assay type: in vivo, mice; conditions: U87 orthotopic xenografts, versus control
Text: The PI3K/Akt/mTOR signaling pathway is over activated in glioma tissues, and this increased activation is closely related to malignancy and chemoresistance of gliomas. Previous research reported that among its potential anti-tumor actions in breast cancer, DMC targeted multiple AMPK downstream pathways involving dephosphorylation of Akt and mTOR inhibition. Because DMC-BH is a DMC derivative, we further investigated the inhibitory effects of DMC-BH on gliomas by targeting the Akt/mTOR signaling pathway. We evaluated the expression of p-Akt, and p-mTOR in tumor tissues after DMC-BH treatment (Figure 6A). […] No significant changes were found in total Akt and mTOR expression. Moreover, the expression of p-Akt and p-mTOR in the DMC group was decreased with that in the control group (P < 0.05).
Figure 6 The effects of DMC-BH and DMC on the Akt/mTOR signaling pathway in U87 orthotopic glioblastoma xenografts. (A) Total protein was extracted from U87 orthotopic glioblastoma xenografts. Then p-Akt and p-mTOR protein expression was detected by Western blot. (B) The column chart illustrates the relative expression levels of these proteins.

[3] = female, Sprague-Dawley, plasma, iv, 1.00 mg/kg
[4] = female, Sprague-Dawley, plasma, po, i.g., 10.0 mg/kg

`COc1cc(C=CC(=O)CC(=O)C=Cc2ccc(O)c(CN3CCCC3)c2)ccc1O` [DMC-BH, 1-[4-Hydroxy-3-(pyrrolidin-1-ylmethyl)phenyl]-7-(4-hydroxy-3-methoxyphenyl) hepta-1,6-diene-3,5-dione] showed an AUC(0-t) [1, 3] of 0.634 ± 0.127 µg·h/mL, a Cmax ([1]; female, Sprague-Dawley, plasma, iv, 1.00 mg/kg, read-out: Cmax) of 0.938 ± 0.231 µg/mL and an MRT last [1, 3] of 1.85 ± 0.21 h. The half-life [1, 3] was 2.54 ± 0.23 h, the Tmax ([1]; female, Sprague-Dawley, plasma, iv, 1.00 mg/kg, read-out: Tmax) was 0.08 h and the Vd ([1]; female, Sprague-Dawley, plasma, iv, 1.00 mg/kg, read-out: Vz_F_obs (volume of distribution)) was 4.9 ± 0.783 L/kg. The bioavailability ([1]; female, Sprague-Dawley, plasma, oral, i.g. 10.0 mg/kg versus i.v. 1.00 mg/kg, read-out: F (percent oral bioavailability)) was 57.1%, the AUC(0-t) [1, 4] was 3.62 ± 0.623 µg·h/mL and the CL/F ([1]; female, Sprague-Dawley, plasma, po, i.g., 10.0 mg/kg, read-out: Cl_F_obs (plasma clearance rate) (converted)) was 6.75 L/h/kg. The Cmax ([1]; female, Sprague-Dawley, plasma, po, i.g., 10.0 mg/kg, read-out: Cmax) was 1.26 ± 0.385 µg/mL, the MRT last [1, 4] was 4.21 ± 0.16 h and the half-life [1, 4] was 7.82 ± 1.54 h. For the same molecule, the Tmax ([1]; female, Sprague-Dawley, plasma, po, i.g., 10.0 mg/kg, read-out: Tmax) was 1.45 ± 0.35 h, the Vd/F ([1]; female, Sprague-Dawley, plasma, po, i.g., 10.0 mg/kg, read-out: Vz_F_obs (volume of distribution)) was 54.4 ± 19.1 L/kg and the Cl F obs (plasma clearance rate) ([1]; i.v., 1.00 mg/kg) was 1.48 ± 0.257 L/h/kg. The “increased exposure (AUC) when administered orally compared to DMC” value ([1]; oral) was “approximately 6 fold”, the “tumor growth (BLI)” value [2] was “much greater tumor suppressive effects” and the “percentage of TUNEL-positive cells” value [2] was 28.68% ± 5.15%. The Ki67-positive rate [2] was 6.38% ± 1.38% and the “p-mTOR expression in tumor tissues” value (p-mTOR) was “significantly decreased”.
With “Demethoxycurcumin [DMC, reference compound]” the “F (percent oral bioavailability)” value ([1]; i.g. 10.0 mg/kg versus i.v. 1.00 mg/kg) was 8.3%, the AUClast ([1]; i.g., 10.0 mg/kg) was 0.62 ± 0.271 µg·h/mL and the Cl F obs (plasma clearance rate) ([1]; i.g., 10.0 mg/kg) was 0.765 ± 0.098 L/h/kg. For the same molecule, the Cmax ([1]; i.g., 10.0 mg/kg) was 0.216 ± 0.046 µg/mL, the “MRTlast (mean residence time)” value ([1]; i.g., 10.0 mg/kg) was 3.12 ± 0.45 h and the “T1/2 (half-life)” value ([1]; i.g., 10.0 mg/kg) was 4.32 ± 1.98 h. For the same molecule, the Tmax ([1]; i.g., 10.0 mg/kg) was 0.67 ± 0.12 h, the “Vz_F_obs (volume of distribution)” value ([1]; i.g., 10.0 mg/kg) was 6543 ± 687 and the AUClast ([1]; i.v., 1.00 mg/kg) was 0.742 ± 0.254 µg·h/mL. The Cl F obs (plasma clearance rate) ([1]; i.v., 1.00 mg/kg) was 1.3 ± 0.22 L/h/kg, the Cmax ([1]; i.v., 1.00 mg/kg) was 0.754 ± 0.275 µg/mL and the “MRTlast (mean residence time)” value ([1]; i.v., 1.00 mg/kg) was 1.32 ± 0.29 h. The “T1/2 (half-life)” value ([1]; i.v., 1.00 mg/kg) was 1.24 ± 0.21 h, the Tmax ([1]; i.v., 1.00 mg/kg) was 0.08 ± 0.00 h and the “Vz_F_obs (volume of distribution)” value ([1]; i.v., 1.00 mg/kg) was 5421 ± 432. For the same molecule, the “tumor growth (BLI)” value [2] was “slight but significant tumor inhibitory effects”, the “percentage of TUNEL-positive cells” value [2] was 3.33% ± 0.31% and the Ki67-positive rate [2] was 22.17% ± 5.10%. The “p-mTOR expression in tumor tissues” value (p-mTOR) was “decreased”.
